Test [1] deals with cold allodynia induced by oxaliplatin. Kind of test: Onset of cold allodynia induced by oxaliplatin, drug given around oxaliplatin administration. The test is classed as in vivo, mouse. The following applies: 10 mg/kg oral, 30 minutes before oxaliplatin or 3 administrations. How it is done:
Oxaliplatin was dissolved in 5% glucose-containing saline and intraperitoneally administered at a dose of 2 mg/kg. Drug administration (oral administration) was performed 30 minutes before oxaliplatin administration (FIG. 7A); or 3 times: 30 minutes before oxaliplatin administration, 2.5 hours after the administration, and 5.5 hours after the administration (FIG. 7B). Male ddY mice (6 to 12 weeks old) were used. The axis of ordinates is the duration of the behavior of licking and paw waving after the application of an acetone drop (10 μL) to the footpad of a hind paw.

Test [2] addresses T1, mouse PAC receptor-expressing CHO cell (PAC1/CHO cell) (Mus musculus, UniProt P70205).
T1 construct: expressed in transfected cells; host or cells: CHO cells
T1 sequence (P70205 21-496): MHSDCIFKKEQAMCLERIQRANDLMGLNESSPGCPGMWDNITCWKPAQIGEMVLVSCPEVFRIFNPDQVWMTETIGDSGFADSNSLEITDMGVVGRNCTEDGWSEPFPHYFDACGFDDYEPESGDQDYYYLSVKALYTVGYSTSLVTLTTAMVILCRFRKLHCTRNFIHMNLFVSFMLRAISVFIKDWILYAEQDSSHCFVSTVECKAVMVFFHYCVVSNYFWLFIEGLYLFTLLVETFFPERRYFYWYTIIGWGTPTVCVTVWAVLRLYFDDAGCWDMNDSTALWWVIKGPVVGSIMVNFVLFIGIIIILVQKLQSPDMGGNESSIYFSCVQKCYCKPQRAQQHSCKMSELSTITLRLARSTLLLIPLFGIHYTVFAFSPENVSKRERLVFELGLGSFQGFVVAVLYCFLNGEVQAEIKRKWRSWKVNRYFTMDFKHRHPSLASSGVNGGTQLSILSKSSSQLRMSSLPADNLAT
The experiment in a line: CREB phosphorylation by PACAP stimulus, Western blot, PAC1/CHO cell. Type of test: cell-based. The method, then:
The effect of each compound on the phosphorylation of CREB (cAMP-responsive element-binding protein) produced by a PACAP stimulus was examined by Western blot analysis using an anti-phosphorylated CREB (pCREB) antibody with a mouse PAC receptor-expressing CHO cell (PAC1/CHO cell) and a mouse VPAC1 receptor-expressing CHO cell (VPAC1/CHO cell).
Specifically, treatment with a compound (PA-8, PA-9, compounds 2j, 20 and 3d) at 10 μM to 10 nM or a solvent therefor (VEH: 0.1% DMSO-containing phosphate buffer solution) was performed for 30 minutes, 1 nM PACAP was then added, and protein was recovered within 30 minutes after a PACAP stimulus.

In test [3] the test system is mechanical allodynia induced by PACAP intrathecal administration. The experiment in a line: Mechanical allodynia induced by PACAP intrathecal administration (von Frey test). The test is classed as in vivo, mouse. The following applies: 10 or 100 pmol, simultaneous i.t.; FIGS. 5A and B. How it is done:
When single i.t. administration of PACAP (100 pmol/5 L) to mouse was performed, mechanical stimulus sensitive phenomenon (mechanical allodynia) occurred over a long period of time (for at least three months after the administration) (Non Patent Literature 1). […] The mechanical sensitive phenomenon induced by PACAP was not suppressed in an example in which a solvent (VEH: 0.2% DMSO-containing artificial cerebrospinal fluid) was used instead of the compounds.
(§1) Male ddY mice (6 to 12 weeks old) were used, and the threshold to a mechanical stimulus was evaluated by the vonFrey test. Specifically, the 50% withdrawal reflex threshold (Threshold) was calculated in accordance with the method of Chaplan et al. (Chaplan et al., J. Neurosci. Meth. 53, 55-63, 1994). Each compound was dissolved in 99.7% DMSO, and then the resulting solution was diluted with an artificial cerebrospinal fluid for preparation (final concentration of DMSO was 0.2%).

For test [4], the target named is T2, PAC1 receptor (Homo sapiens, UniProt P41586).
T2 sequence (P41586 21-468): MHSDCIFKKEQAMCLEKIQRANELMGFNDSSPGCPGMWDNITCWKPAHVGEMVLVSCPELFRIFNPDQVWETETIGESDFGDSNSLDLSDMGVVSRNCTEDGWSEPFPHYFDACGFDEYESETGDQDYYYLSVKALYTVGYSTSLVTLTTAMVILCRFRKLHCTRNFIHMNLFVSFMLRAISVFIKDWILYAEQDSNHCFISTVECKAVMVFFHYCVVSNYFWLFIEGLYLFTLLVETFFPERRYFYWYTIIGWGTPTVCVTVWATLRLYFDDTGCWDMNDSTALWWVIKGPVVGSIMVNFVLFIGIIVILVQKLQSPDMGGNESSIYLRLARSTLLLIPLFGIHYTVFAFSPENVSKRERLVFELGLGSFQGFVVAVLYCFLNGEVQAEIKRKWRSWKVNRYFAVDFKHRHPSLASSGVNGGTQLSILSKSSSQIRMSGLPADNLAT
The note with it: Non Patent Literature 3; cited from earlier work.

The test system of test [5] is mechanical allodynia induced by spinal nerve injury. Kind of test: Spinal nerve ligation (SNL) model, i.t. administration on 14th day, mechanical allodynia. The test is classed as in vivo, mouse. The note with it: 100 pmol i.t. on 14th day after operation. The method, then:
as §1
Spinal nerve ligation (SNL) models in which the fourth lumbar cord spinal nerves of male ddY (6 to 12 weeks old) were ligated with silk thread were used. The i.t. administration of a solvent (VEH: 10% DMSO-containing saline), PA-8, the compound 2j or the compound 2o (FIG. 9A), or PA-9 or the compound 3d (FIG. 9B) was performed on the 14th day after the operation. The method of causing a mechanical stimulus is the same as that of Example 5, and data were acquired for 24 hours after i.t. administration over time.

For test [6] the following is noted: Non Patent Literature 4; cited from earlier work.
Test [7] deals with pain-like behavior induced by formalin. The experiment in a line: Pain-like behavior induced by formalin. The test is classed as in vivo, mouse. The note with it: 0.1 to 10 nmol i.t. The method, then: The first phase is direct action of formalin on sensory nerves (to around 10 minutes after formalin administration). In the second phase (from around 10 minutes to 60 minutes after formalin administration), hypersensitization formed in spinal dorsal horn cells during the first phase (a type of plastic phenomenon in the nervous system also called central sensitization) is a main cause, and inflammatory reaction at the site of formalin administration contributes importantly.

Consider `C=CCOc1ccc(C2CC(=O)Nc3nc(N)[nH]c(=O)c32)cc1OC` (stereo not drawn) [PA-8, reference compound], for which the “suppression of the onset of cold allodynia by oxaliplatin” value in test [1] was “suppressed the onset of cold allodynia by oxaliplatin significantly”. In addition, the “suppression of CREB phosphorylation by PACAP (1 nM)” value in test [2] (PAC1/CHO cell, compound 10 μM to 10 nM, 30 minutes before 1 nM PACAP) is listed as “suppressed CREB phosphorylation by PACAP (1 nM)”. In addition, in test [2] (concluded from PAC1/CHO and VPAC1/CHO data), the “receptor selectivity (PAC1 versus VPAC1)” value is reported as “PAC1 receptor selective antagonistic drug”. In addition, in test [3], the “suppression of long-term mechanical allodynia induced by PACAP” value was “strongly suppressed”. The “PAC1 receptor antagonistic action” value in test [4] is “have PAC1 receptor antagonistic action”. In addition, the anti-mechanical allodynia effect entry in test [5] is reported as “suppressed the onset of mechanical allodynia significantly”. For the same compound, the analgesic effect result in test [6] is given as “have analgesic effect”. In test [7], the “effect on first phase reaction” value is recorded as “did not affect the first phase reaction” and the “effect on second phase reaction” value is on record as “suppressed the second phase reaction significantly depending on the concentration”.
